We go through three compounds from patent publication EP0531958A1, “6-Aminoquinolones, their synthesis and their use as antibacterial agents” (MEDIOLANUM FARMACEUTICI S.P.A., priority 1991, dated 1993).

Converted amounts (≈) assume the structure as drawn. Read-outs that look alike come from different tables or passages of the source.

What all share (format): cell-based
Test [1] has as its system Gram +. The experiment in a line: MIC test, average over the 5 gram-positive test germs. The note with it: 24 h. As for the experimental part: (§1) As to the antibacterial activity, there was determined the Least (Minimum) Inhibiting Concentration (MIC), by working according to the following operative conditions.
(§2) There were used suspensions of test germs (5 gram-positive and 15 gram-negative) having a known titre, kept freezed at -80°C and diluted, at the time of use, in peptonized water up to a concentration of 1-2.10⁷ cfu/ml.
(§3) A few mg of the products, according to the invention were weighed sufficient for preparing parent solutions in DMSO + NaOH (1N) containing 2560 µg/ml (64µg/ml/dish). From the thus prepared parent solutions there were prepared 12 serial dilutions (1:2) down to the concentration of 1.25 µg/ml.
(§4) 0.5 ml of the different dilutions of each product were distributed on dishes containing 19.5 ml of agarized medium (TSA), maintained in a fluid state at the temperature of 50°C. After slight stirring, the dishes were made to solidify and dry under hood (laminar flow).
(§5) The MIC tests (Least or "Minimum" Inhibiting Concentration) were performed by using a Steers multiwell inoculator having 36 wells, each containing 200 µl of bacterial suspension.
(§6) After inoculation, the dishes were placed into a thermostat and checked after 24 h of incubation at 35°C.
(§7) The MIC is defined as the lowermost product concentration (µg/ml) inhibiting the visible growth of the microorganisms.

Test [2] relates to Staphylococcus epidermidis CPHL A2. The experiment in a line: MIC test, agar dilution with Steers multiwell inoculator. The note with it: CPHLA2, TSA dishes, 24 h at 35°C, read-out: Minimum Inhibiting Concentration. As for the experimental part:
as §1, §2, §3, §4, §5, §6, §7

The test system of test [3] is Staphylococcus epidermidis HCF Berset C. The test is described as above. The note with it: TSA dishes, 24 h at 35°C, read-out: Minimum Inhibiting Concentration. The protocol:
as §1, §2, §3, §4, §5, §6, §7

For test [4], the system named is Streptococcus facealis LEP Br. The description is as above. The note with it: TSA dishes, 24 h at 35°C, read-out: Minimum Inhibiting Concentration. The protocol: as §1, §2, §3, §4, §5, §6, §7
Test [5] deals with Escherichia coli 120. The description is as above. The note with it: TSA dishes, 24 h at 35°C, read-out: Minimum Inhibiting Concentration. As for the experimental part:
as §1, §2, §3, §4, §5, §6, §7

Test [6] has as its system Escherichia coli ATCC 8739. The test is described as above. The note with it: ATCC8739, TSA dishes, 24 h at 35°C, read-out: Minimum Inhibiting Concentration. As for the experimental part: as §1, §2, §3, §4, §5, §6, §7
Test [7] relates to Klebsiella pneumoniae ATCC 10031. The test is described as above. The note with it: ATCC10031, TSA dishes, 24 h at 35°C, read-out: Minimum Inhibiting Concentration. The protocol:
as §1, §2, §3, §4, §5, §6, §7

Test [8] deals with Pseudomonas aeruginosa ATCC 9027. Described as above. The note with it: ATCC9027, TSA dishes, 24 h at 35°C, read-out: Minimum Inhibiting Concentration. The protocol: as §1, §2, §3, §4, §5, §6, §7
Test [9] has as its system Staphylococcus aureus MPR 5. The test is described as above. The note with it: MPR5, TSA dishes, 24 h at 35°C, read-out: Minimum Inhibiting Concentration. As for the experimental part:
as §1, §2, §3, §4, §5, §6, §7

Test [10] has as its system Escherichia coli CNUR 8. Described as above. The note with it: CNUR8, TSA dishes, 24 h at 35°C, read-out: Minimum Inhibiting Concentration. The protocol:
as §1, §2, §3, §4, §5, §6, §7

Test [11] concerns Staphylococcus aureus ATCC 6538. Described as above. The note with it: ATCC6538, TSA dishes, 24 h at 35°C, read-out: Minimum Inhibiting Concentration. As for the experimental part:
as §1, §2, §3, §4, §5, §6, §7

The subject of test [12] is Enterobacter cloacae OMNF 1174. The test is described as above. The note with it: OMNF1174, TSA dishes, 24 h at 35°C, read-out: Minimum Inhibiting Concentration. The protocol: as §1, §2, §3, §4, §5, §6, §7
For test [13], the system named is Escherichia coli CNUR 1. Described as above. The note with it: CNUR1, TSA dishes, 24 h at 35°C, read-out: Minimum Inhibiting Concentration. As for the experimental part:
as §1, §2, §3, §4, §5, §6, §7

The test system of test [14] is Proteus vulgaris CNUR 6. The description is as above. The note with it: CNUR6, TSA dishes, 24 h at 35°C, read-out: Minimum Inhibiting Concentration. As for the experimental part:
as §1, §2, §3, §4, §5, §6, §7

Test [15] relates to Acinebacter calcoloaceticus OSMPV 1130. The test is described as above. The note with it: TSA dishes, 24 h at 35°C, read-out: Minimum Inhibiting Concentration. As for the experimental part: as §1, §2, §3, §4, §5, §6, §7
Test [16] deals with Pseudomonas aeruginosa CNUR 4. Described as above. The note with it: CNUR4, TSA dishes, 24 h at 35°C, read-out: Minimum Inhibiting Concentration. The protocol:
as §1, §2, §3, §4, §5, §6, §7

Test [17] relates to Escherichia coli ISF 432. The description is as above. The note with it: ISF432, TSA dishes, 24 h at 35°C, read-out: Minimum Inhibiting Concentration. The protocol:
as §1, §2, §3, §4, §5, §6, §7

For test [18], the system named is Enterobacter cloacae OMNF 1153. The description is as above. The note with it: OMNF1153, TSA dishes, 24 h at 35°C, read-out: Minimum Inhibiting Concentration. The protocol: as §1, §2, §3, §4, §5, §6, §7
Test [19] has as its system Pseudomonas aeruginosa CNUR 2. The description is as above. The note with it: CNUR2, TSA dishes, 24 h at 35°C, read-out: Minimum Inhibiting Concentration. As for the experimental part: as §1, §2, §3, §4, §5, §6, §7
For test [20], the system named is Providencia stuardii CNUR 5. The description is as above. The note with it: CNUR5, TSA dishes, 24 h at 35°C, read-out: Minimum Inhibiting Concentration. The protocol: as §1, §2, §3, §4, §5, §6, §7
Test [21] has as its system Gram -. The experiment in a line: MIC test, average over the 15 gram-negative test germs. The note with it: 24 h. The protocol: as §1, §2, §3, §4, §5, §6, §7
The mark [22] stands for this setting: geometrical average of the MIC over the 5 Gram + strains, read-out: Geometrical Average.
[23] abbreviates: geometrical average of the MIC over the 15 Gram - strains, read-out: Geometrical Average.
The mark [24] stands for this setting: mean log of the MIC over the 15 Gram - strains, read-out: Log (converted).

Take `Nc1cc2c(=O)c(C(=O)O)cn(-c3ccc(F)cc3)c2cc1N1CCSCC1` [Compound 51]: the MIC in [1] (setting [22]) is 2.3 µg/mL; in test [1] (read-out: Log (converted)) it was 2.3 µg/mL (≈ 5.75 µM); in [2] it was 2 µg/mL (≈ 5.01 µM); in test [3], 2 µg/mL (≈ 5.01 µM); in test [4], 64 µg/mL (≈ 160 µM); in [5], 0.5 µg/mL (≈ 1.25 µM). The MIC in [6] worked out at 0.06 µg/mL (≈ 0.15 µM); in test [7] it was 0.03 µg/mL (≈ 0.0751 µM); in test [8] it was 128 µg/mL (≈ 320 µM); in test [9], 0.5 µg/mL (≈ 1.25 µM); in test [10], 0.5 µg/mL (≈ 1.25 µM); in test [11], 0.5 µg/mL (≈ 1.25 µM). The MIC is 4 µg/mL (≈ 10 µM) in test [12]; 4 µg/mL (≈ 10 µM) in test [13]; 128 µg/mL (≈ 320 µM) in test [14]; 4 µg/mL (≈ 10 µM) in test [15]; 128 µg/mL (≈ 320 µM) in [16]; 0.03 µg/mL (≈ 0.0751 µM) in test [17]. Besides, the MIC in test [18] is 4 µg/mL (≈ 10 µM); in [19], 128 µg/mL (≈ 320 µM); in test [20] it was 4 µg/mL (≈ 10 µM); in test [21] (setting [23]), 3.01 µg/mL (≈ 7.53 µM); in test [21] (setting [24]) it was 3.01 µg/mL (≈ 7.53 µM).

For the compound `Cc1c(N2CCc3ccccc3C2)c(N)cc2c(=O)c(C(=O)O)cn(C3CC3)c12` [Compound 36, 6-amino-1-cyclopropyl-8-methyl-7-[2-(1,2,3,4-tetrahydroisoquinolinyl)]-carboxylic acid], the MIC in [1] (setting [22]) is 1.15 µg/mL; in test [1] (read-out: Log (converted)), 1.15 µg/mL (≈ 2.95 µM); in test [2], 1 µg/mL (≈ 2.57 µM); in test [3], 2 µg/mL (≈ 5.14 µM); in test [4], 4 µg/mL (≈ 10.3 µM); in [5], 2 µg/mL (≈ 5.14 µM). Also, the MIC came to 0.12 µg/mL (≈ 0.308 µM) in [6]; 0.12 µg/mL (≈ 0.308 µM) in test [7]; 32 µg/mL (≈ 82.2 µM) in test [8]; 0.5 µg/mL (≈ 1.28 µM) in test [9]; 2 µg/mL (≈ 5.14 µM) in test [10]; 0.5 µg/mL (≈ 1.28 µM) in test [11]. For the same compound, the MIC was 8 µg/mL (≈ 20.5 µM) in test [12]; 4 µg/mL (≈ 10.3 µM) in [13]; 64 µg/mL (≈ 164 µM) in [14]; 8 µg/mL (≈ 20.5 µM) in test [15]; 128 µg/mL (≈ 329 µM) in test [16]; 0.25 µg/mL (≈ 0.642 µM) in test [17]. The MIC in test [18] was 8 µg/mL (≈ 20.5 µM); in test [19] it was 8 µg/mL (≈ 20.5 µM); in test [20], 2 µg/mL (≈ 5.14 µM); in test [21] (setting [23]), 3.98 µg/mL (≈ 10.2 µM); in test [21] (setting [24]) it was 3.98 µg/mL (≈ 10.2 µM).

As for `Nc1cc2c(=O)c(C(=O)O)cn(C3CC3)c2cc1N1CCC(O)CC1` [Compound 16], the MIC in test [1] (setting [22]) was 4 µg/mL; in test [1] (read-out: Log (converted)), 4 µg/mL (≈ 11.6 µM); in test [2], 2 µg/mL (≈ 5.82 µM); in test [3] it was 4 µg/mL (≈ 11.6 µM); in [4], 8 µg/mL (≈ 23.3 µM); in test [5], 0.5 µg/mL (≈ 1.46 µM). Besides, the MIC in test [6] was found to be 0.03 µg/mL (≈ 0.0874 µM); in test [7], 0.03 µg/mL (≈ 0.0874 µM); in test [8], 8 µg/mL (≈ 23.3 µM); in [9], 4 µg/mL (≈ 11.6 µM); in [10] it was 1 µg/mL (≈ 2.91 µM); in test [11] it was 4 µg/mL (≈ 11.6 µM). Also, the MIC in test [12] was 2 µg/mL (≈ 5.82 µM); in test [13], 2 µg/mL (≈ 5.82 µM); in test [14], 128 µg/mL (≈ 373 µM); in test [15] it was 2 µg/mL (≈ 5.82 µM); in test [16], 128 µg/mL (≈ 373 µM); in [17], 0.03 µg/mL (≈ 0.0874 µM). Also, the MIC is 2 µg/mL (≈ 5.82 µM) in test [18]; 128 µg/mL (≈ 373 µM) in [19]; 8 µg/mL (≈ 23.3 µM) in test [20]; 2.08 µg/mL (≈ 6.05 µM) in test [21] (setting [23]); 2.07 µg/mL (≈ 6.04 µM) in test [21] (setting [24]).
